Patent US12655116B2, “Substituted isophthalic acid diamides” (Bayer Aktiengesellschaft, priority 2020, dated 2026)

Columns and labels:
VERPE [1] = experiment: Pre-emergence herbicidal action against VERPE; format: in vivo, Veronica persica
Procedure, shortened: (§1)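 Greenhouse pots of sandy loam held seeds covered with soil, onto which the compound was applied before emergence. An aqueous suspension or emulsion of WP or EC was used at 600 to 800 l/ha with 0.2% wetting agent. Percent damage was judged visually at 3 weeks.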

MATIN [2] = experiment: Pre-emergence herbicidal action against MATIN; format: in vivo, Matricaria inodora
Procedure, shortened: as §1

AVEFA [3] = experiment: Post-emergence herbicidal action against AVEFA; format: in vivo, Avena fatua; conditions: 20 g/ha, visual assessment about 3 weeks after treatment, 100% = plants have died, 0% = like control plants
Procedure, shortened: (§2)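 A WP or EC formulation diluted in water with 0.2% wetting agent was sprayed at 600 to 800 l/ha onto one-leaf-stage plants grown in sandy loam. About 3 weeks later, action was rated visually in percent, 100% being dead plants.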

SETVI [4] = experiment: Post-emergence herbicidal action against SETVI; format: in vivo, Setaria viridis
Procedure, shortened: as §2

VIOTR [5] = experiment: Pre-emergence herbicidal action against VIOTR; format: in vivo, Viola tricolor
Procedure, shortened: as §1

SETVI [6] = experiment: Pre-emergence herbicidal action against SETVI; format: in vivo, Setaria viridis; conditions: dosage 80 g/ha
Procedure, shortened: as §1

DIGSA [7] = experiment: Pre-emergence herbicidal action against DIGSA; format: in vivo, Digitaria sanguinalis
Procedure, shortened: as §1

AMARE [8] = experiment: Post-emergence herbicidal action against AMARE; format: in vivo, Amaranthus retroflexus; conditions: 20 g/ha, visual assessment about 3 weeks after treatment, 100% = plants have died, 0% = like control plants
Procedure, shortened: as §2

PHBPU [9] = experiment: Pre-emergence herbicidal action against PHBPU; format: in vivo, Pharbitis purpurea
Procedure, shortened: as §1

MATIN [10] = experiment: Post-emergence herbicidal action against MATIN; format: in vivo, Matricaria inodora
Procedure, shortened: as §2

DIGSA [11] = experiment: Post-emergence herbicidal action against DIGSA; format: in vivo, Digitaria sanguinalis
Procedure, shortened: as §2

POLCO = experiment: Pre-emergence herbicidal action against POLCO; format: in vivo, Polygonum convolvulus; conditions: dosage 80 g/ha
Procedure, shortened: as §1

ECHCG [12] = experiment: Post-emergence herbicidal action against ECHCG; format: in vivo, Echinochloa crus-galli
Procedure, shortened: as §2

AVEFA [13] = experiment: Pre-emergence herbicidal action against AVEFA; format: in vivo, Avena fatua; conditions: pre-emergence
Procedure, shortened: as §1

VERPE [14] = experiment: Post-emergence herbicidal action against VERPE; format: in vivo, Veronica persica; conditions: 20 g/ha
Procedure, shortened: as §2

ABUTH [15] = experiment: Pre-emergence herbicidal action against ABUTH; format: in vivo, Abutilon theophrasti
Procedure, shortened: as §1

ALOMY [16] = experiment: Pre-emergence herbicidal action against ALOMY; format: in vivo, Alopecurus myosuroides; conditions: 80 g/ha, pre-emergence, scored visually after 3 weeks vs untreated controls (100% = plants have died, 0% = like control plants)
Procedure, shortened: as §1

VIOTR [17] = experiment: Post-emergence herbicidal action against VIOTR; format: in vivo, Viola tricolor
Procedure, shortened: as §2

ECHCG [18] = experiment: Pre-emergence herbicidal action against ECHCG; format: in vivo, Echinochloa crus-galli; conditions: 80 g/ha
Procedure, shortened: as §1

ABUTH [19] = experiment: Post-emergence herbicidal action against ABUTH; format: in vivo, Abutilon theophrasti; conditions: visual assessment about 3 weeks after treatment vs untreated controls
Procedure, shortened: as §2

AMARE [20] = experiment: Pre-emergence herbicidal action against AMARE; format: in vivo, Amaranthus retroflexus
Procedure, shortened: as §1

ALOMY [21] = experiment: Post-emergence herbicidal action against ALOMY; format: in vivo, Alopecurus myosuroides; conditions: visual assessment about 3 weeks after treatment vs untreated controls
Procedure, shortened: as §2

PHBPU [22] = experiment: Post-emergence herbicidal action against PHBPU; format: in vivo, Pharbitis purpurea; conditions: Ipomoea purpurea, 504 h, dosage 20 g/ha
Procedure, shortened: as §2

[23] = 80 g/ha, scored visually after 3 weeks vs untreated controls (100% = plants have died, 0% = like control plants)
[24] = Tripleurospermum inodorum, 504 h, dosage 20 g/ha

CCn1nnnc1NC(=O)c1ccc(C(F)(F)F)c(C(=O)NC(C)C2CC2)c1C1CC1 (stereo not drawn) [Example 2-292]
Pre-emergence action against VERPE in % (VERPE [1]; dosage 20 g/ha): 90% | Pre-emergence action against VERPE in % (VERPE [1]; dosage 80 g/ha): 100% | Pre-emergence action against MATIN in % (MATIN [2]; dosage 20 g/ha): 90% | Pre-emergence action against MATIN in % (MATIN [2]; dosage 80 g/ha): 100% | Post-emergence action at 20 g/ha against AVEFA in % (AVEFA [3]): 80% | Post-emergence action against SETVI in % (SETVI [4]; dosage 20 g/ha): 80% | Pre-emergence action against VIOTR in % (VIOTR [5]; dosage 20 g/ha): 100% | Pre-emergence action against VIOTR in % (VIOTR [5]; dosage 80 g/ha): 100% | Pre-emergence action against SETVI in % (SETVI [6]): 100% | Pre-emergence action against DIGSA in % (DIGSA [7]; dosage 20 g/ha): 100% | Pre-emergence action against DIGSA in % (DIGSA [7]; dosage 80 g/ha): 100% | Post-emergence action at 20 g/ha against AMARE in % (AMARE [8]): 90% | Pre-emergence action against PHBPU in % (PHBPU [9]; dosage 20 g/ha): 80% | Pre-emergence action against PHBPU in % (PHBPU [9]; dosage 80 g/ha): 90% | Post-emergence action against MATIN in % (MATIN [10]; dosage 5 g/ha): 80% | Post-emergence action against MATIN in % (MATIN [10]; dosage 20 g/ha): 90% | Post-emergence action against DIGSA in % (DIGSA [11]; 5 g/ha): 90% | Post-emergence action against DIGSA (DIGSA [11]; 20 g/ha): 90% | Pre-emergence action against POLCO in % (POLCO): 100% | Post-emergence action against ECHCG in % (ECHCG [12]; dosage 5 g/ha): 80% | Post-emergence action against ECHCG in % (ECHCG [12]; dosage 20 g/ha): 80% | Pre-emergence action against AVEFA in % (AVEFA [13]; 80 g/ha): 90% | Post-emergence action against VERPE in % (VERPE [14]): 80% | Pre-emergence action against ABUTH (herbicidal activity) (ABUTH [15]; [23]): 100% | Pre-emergence action against ABUTH (herbicidal activity in percent) (ABUTH [15]; dosage 20 g/ha, scored visually after 3 weeks vs untreated controls, 100% = plants have died, 0% = like control plants): 100% | Pre-emergence action against ALOMY (herbicidal activity) (ALOMY [16]): 90% | Post-emergence action against VIOTR in % (VIOTR [17]; 20 g/ha): 80% | Pre-emergence action against ECHCG in % (ECHCG [18]): 100% | Post-emergence action against ABUTH in % (ABUTH [19]; dosage 20 g/ha): 80% | Pre-emergence action against AMARE in % (AMARE [20]; 20 g/ha, scored visually after 3 weeks vs untreated controls, 100% = plants have died, 0% = like control plants): 100% | Pre-emergence action against AMARE in % (AMARE [20]; [23]): 100% | Post-emergence action against ALOMY in % (ALOMY [21]; dosage 20 g/ha): 80%

CCn1nnnc1NC(=O)c1ccc(C(F)F)c(C(=O)NC(C)C)c1C [Example 2-345]
pest or weed control at 80 g/ha (VERPE [1]; Veronica persica, 504 h, dosage 80 g/ha): 100% | pest or weed control at 20 g/ha (MATIN [2]; [24]): 100% | pest or weed control at 80 g/ha (MATIN [2]; Tripleurospermum inodorum, 504 h, dosage 80 g/ha): 100% | pest or weed control at 20 g/ha (AVEFA [3]; Avena fatua, 504 h): 80% | pest or weed control at 5 g/ha (SETVI [4]; Setaria viridis, 504 h, dosage 5 g/ha): 80% | pest or weed control at 20 g/ha (SETVI [4]; Setaria viridis, 504 h, dosage 20 g/ha): 100% | pest or weed control at 20 g/ha (VIOTR [5]; Viola tricolor, 504 h, dosage 20 g/ha): 80% | pest or weed control at 80 g/ha (VIOTR [5]; Viola tricolor, 504 h, dosage 80 g/ha): 100% | pest or weed control at 80 g/ha (SETVI [6]; Setaria viridis, 504 h): 100% | pest or weed control at 20 g/ha (AMARE [8]; Amaranthus retroflexus, 504 h): 100% | pest or weed control at 80 g/ha (PHBPU [9]; Ipomoea purpurea, 504 h, dosage 80 g/ha): 80% | pest or weed control at 5 g/ha (MATIN [10]; Tripleurospermum inodorum, 504 h, dosage 5 g/ha): 90% | pest or weed control at 20 g/ha (MATIN [10]; [24]): 100% | pest or weed control at 80 g/ha (POLCO; Fallopia convolvulus, 504 h): 90% | pest or weed control at 20 g/ha (ECHCG [12]; Echinochloa crus-galli, 504 h, dosage 20 g/ha): 80% | pest or weed control at 80 g/ha (AVEFA [13]; Avena fatua, 504 h, 80 g/ha): 80% | pest or weed control at 20 g/ha (AVEFA [13]; Avena fatua, 504 h, 20 g/ha, scored visually after 3 weeks, 100% = plants have died, 0% = like control plants): 80% | pest or weed control at 20 g/ha (VERPE [14]; Veronica persica, 504 h): 80% | pest or weed control at 80 g/ha (ABUTH [15]; Abutilon theophrasti, 504 h, 80 g/ha, scored visually after 3 weeks vs untreated controls (100% = plants have died, 0% = like control plants)): 100% | pest or weed control at 20 g/ha (ABUTH [15]; Abutilon theophrasti, 504 h, dosage 20 g/ha, scored visually after 3 weeks vs untreated controls, 100% = plants have died, 0% = like control plants, read-out: Pre-emergence action against ABUTH (herbicidal activity in percent)): 90% | pest or weed control at 80 g/ha (ALOMY [16]; Alopecurus myosuroides, 504 h): 80% | pest or weed control at 5 g/ha (VIOTR [17]; Viola tricolor, 504 h, 5 g/ha): 90% | pest or weed control at 20 g/ha (VIOTR [17]; Viola tricolor, 504 h, 20 g/ha): 90% | pest or weed control at 80 g/ha (ECHCG [18]; Echinochloa crus-galli, 504 h): 90% | pest or weed control at 5 g/ha (ABUTH [19]; Abutilon theophrasti, 504 h, dosage 5 g/ha): 90% | pest or weed control at 20 g/ha (ABUTH [19]; Abutilon theophrasti, 504 h, dosage 20 g/ha): 90% | pest or weed control at 20 g/ha (AMARE [20]; Amaranthus retroflexus, 504 h, 20 g/ha, scored visually after 3 weeks vs untreated controls, 100% = plants have died, 0% = like control plants): 100% | pest or weed control at 80 g/ha (AMARE [20]; Amaranthus retroflexus, 504 h, 80 g/ha, scored visually after 3 weeks vs untreated controls, 100% = plants have died, 0% = like control plants): 100% | pest or weed control at 20 g/ha (PHBPU [22]): 100% | pest or weed control at 5 g/ha (ALOMY [21]; Alopecurus myosuroides, 504 h, dosage 5 g/ha): 80% | pest or weed control at 20 g/ha (ALOMY [21]; Alopecurus myosuroides, 504 h, dosage 20 g/ha): 80%
